Measured values reported in US10294202B2, “Pyrrolidinones as herbicides” (FMC Corporation, priority 2013, dated 2019).
Where two headings read alike, the source gives them in different places.

Assays:
giant foxtail = assay: Test A pre-/postemergence herbicide test; assay type: in vivo, Setaria faberii
In short: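 Seeds sown in loam soil/sand blend received a preemergence directed soil spray of test chemical in non-phytotoxic solvent with surfactant; postemergence plants (2–10 cm, one- to two-leaf stage) were sprayed with the same formulation. After about 10 days in greenhouse, injury was rated visually versus untreated controls, 0 (no effect) to 100 (complete control).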

ducksalad = assay: Test C flooded paddy test; assay type: in vivo, Heteranthera limosa; settings: Flood
In short: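 Plants at the 2-leaf stage in pots flooded to 3 cm were treated by applying compound directly to the paddy water, with depth held throughout. After 13 to 15 days in a greenhouse, response was rated visually against controls on a 0 (no effect) to 100 (complete control) scale.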

barnyardgrass = assay: Test B flooded paddy test; assay type: in vivo, Echinochloa crus-galli; settings: Flood, scale of 0 to 100 where 0 is no effect and 100 is complete control
In short: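 Treatment was made at the 2-leaf stage by dosing the standing floodwater, kept 3 cm above soil level for the whole test. Greenhouse exposure lasted 13 to 15 days. Response is a visual percent rating relative to controls, where a dash indicates no test result.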

corn = assay: Test C pre-/postemergence herbicide test; assay type: in vivo, Zea mays
In short: (§1)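 Visual rating, 0 (no effect) to 100 (complete control), versus untreated controls after 13 to 15 days in the greenhouse. Pre: seeds in loam/sand, sprayed at planting. Post: 1- to 4-leaf plants (2 to 18 cm) in peat-based mix. Compounds in non-phytotoxic solvent plus surfactant.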

crabgrass, large = assay: Test C pre-/postemergence herbicide test; assay type: in vivo, Digitaria sanguinalis
In short: as §1

foxtail, giant = assay: Test C pre-/postemergence herbicide test; assay type: in vivo, Setaria faberii
In short: as §1

pigweed = assay: Test C pre-/postemergence herbicide test; assay type: in vivo, Amaranthus retroflexus
In short: as §1

velvetleaf = assay: Test C pre-/postemergence herbicide test; assay type: in vivo, Abutilon theophrasti
In short: as §1

[1] = 125 g ai/ha, scale of 0 to 100 where 0 is no effect and 100 is complete control, 13 to 15 days
[2] = Postemergence, 125 g ai/ha, visual rating on 0 to 100 scale (0 no effect, 100 complete control), approx. 10 days
[3] = Postemergence, 500 g ai/ha, 0 to 100 scale (0 no effect, 100 complete control)
[4] = Preemergence, 125 g ai/ha, 0 to 100 scale where 0 is no effect and 100 is complete control
[5] = Preemergence, 500 g ai/ha, visual rating on 0 to 100 scale (0 no effect, 100 complete control)
[6] = Postemergence, 31 g ai/ha, scale 0 to 100 (0 no effect, 100 complete control)
[7] = Postemergence, 62 g ai/ha, scale 0 (no effect) to 100 (complete control)
[8] = Postemergence, 125 g ai/ha, scale 0 to 100 (0 no effect, 100 complete control)
[9] = Postemergence, 250 g ai/ha, scale 0 to 100 (0 no effect, 100 complete control)
[10] = Preemergence, 31 g ai/ha, scale 0 to 100, 0 is no effect and 100 is complete control
[11] = Preemergence, 62 g ai/ha, scale 0 to 100 (0 no effect, 100 complete control)
[12] = Preemergence, 125 g ai/ha, scale 0 to 100 (0 no effect, 100 complete control)
[13] = Preemergence, 125 g ai/ha, scale 0 to 100

O=C1NCC(c2cccc(C(F)F)c2)C1C(=O)Nc1ccccc1F (racemic) [Compound 210]
Plant response rating, Foxtail, Giant (giant foxtail; 125 g ai/ha, visual rating, 0 to 100 scale, 0 no effect, 100 complete control, approximately 10 days, preemergence): 80
Plant response rating, Foxtail, Giant (giant foxtail; Postemergence, 125 g ai/ha, 0 to 100 scale, 0 is no effect, 100 is complete control): 50
Foxtail, Giant plant response rating (0 to 100 scale, 0 is no effect, 100 is complete control) (giant foxtail; Postemergence, 500 g ai/ha): 90
Plant response rating, Foxtail, Giant (giant foxtail; preemergence, 500 g ai/ha, 0 to 100 scale, 0 is no effect and 100 is complete control): 90
Plant response rating, Ducksalad (ducksalad; [1]): 0
Plant response rating, Ducksalad (ducksalad; 250 g ai/ha, scale of 0 to 100 where 0 is no effect and 100 is complete control, 13 to 15 days): 80
Plant response rating, Ducksalad (ducksalad; 500 g ai/ha, scale 0 to 100): 100
Plant response rating, Ducksalad (ducksalad; 1000 g ai/ha, scale 0 to 100): 100

O=C1NCC(Br)(c2ccccc2)C1C(=O)Nc1ccccc1F (stereo not shown) [Compound 92, 4-bromo-N-(2-fluorophenyl)-2-oxo-4-phenyl-3-pyrrolidinecarboxamide]
Foxtail, Giant plant response rating (giant foxtail; Preemergence, 125 g ai/ha, visual rating on 0 to 100 scale (0 no effect, 100 complete control)): 0
pest or weed control at 125 g/ha (giant foxtail; Setaria faberi, post-emergence, 240 h, Postemergence, 125 g ai/ha, 0 to 100 scale, 0 no effect, 100 complete control, read-out: Plant response rating, Foxtail, Giant): 0%
pest or weed control at 500 g/ha (giant foxtail; Setaria faberi, post-emergence, 240 h, Postemergence, 500 g ai/ha, 0 to 100 scale (0 no effect, 100 complete control), read-out: Plant response rating, Foxtail, Giant): 10%
pest or weed control at 500 g/ha (giant foxtail; Setaria faberi, pre-emergence, 240 h, preemergence, 500 g ai/ha, 0 to 100 scale, read-out: Plant response rating, Foxtail, Giant): 90%
Plant response rating, Ducksalad (ducksalad; 31 g ai/ha, scale of 0 to 100 where 0 is no effect and 100 is complete control, 13 to 15 days): 0
Plant response rating, Ducksalad (ducksalad; 62 g ai/ha, scale of 0 to 100 where 0 is no effect and 100 is complete control, 13 to 15 days): 20
Plant response rating, Ducksalad (ducksalad; [1]): 20
Plant response rating, Ducksalad (ducksalad; 250 g ai/ha, scale 0 to 100): 70

CN1CC(c2ccc(C(F)(F)F)cc2)C(C(=O)Nc2cccc(F)c2F)C1=O (stereo not shown) [Compound 306]
Plant response rating, Foxtail, Giant (giant foxtail; [2]): 80
Plant response rating, Foxtail, Giant (giant foxtail; [3]): 80
Plant response rating, Foxtail, Giant (giant foxtail; [4]): 90
Foxtail, Giant plant response rating (giant foxtail; [5]): 90
Plant response rating, Barnyardgrass (barnyardgrass; 500 g ai/ha): 75
Plant response rating, Corn (corn; [6]): 0
Plant response rating, Corn (corn; [7]): 0
Plant response rating, Corn (corn; [8]): 0
Plant response rating, Corn (corn; [9]): 20
Corn plant response rating (corn; [10]): 40
Corn plant response rating (corn; [11]): 60
Plant response rating, Corn (corn; [12]): 80
Plant response rating (scale of 0 to 100), Corn (corn; Preemergence, 250 g ai/ha): 75
Plant response rating, Crabgrass, Large (crabgrass, large; [6]): 10
Plant response rating, Crabgrass, Large (crabgrass, large; [7]): 45
Plant response rating, Crabgrass, Large (crabgrass, large; [8]): 75
Plant response rating, Crabgrass, Large (crabgrass, large; [9]): 85
Crabgrass, Large plant response rating (crabgrass, large; [10]): 90
Crabgrass, Large plant response rating (crabgrass, large; [11]): 95
Plant response rating, Crabgrass, Large (crabgrass, large; [12]): 95
Plant response rating (scale of 0 to 100), Crabgrass, Large (crabgrass, large; Preemergence, 250 g ai/ha): 98
Plant response rating, Foxtail, Giant (foxtail, giant; [6]): 5
Plant response rating, Foxtail, Giant (foxtail, giant; [7]): 75
Plant response rating, Foxtail, Giant (foxtail, giant; [8]): 60
Plant response rating, Foxtail, Giant (foxtail, giant; [9]): 85
Foxtail, Giant plant response rating (foxtail, giant; [10]): 90
Foxtail, Giant plant response rating (foxtail, giant; [11]): 95
Plant response rating, Foxtail, Giant (foxtail, giant; [12]): 95
Plant response rating (scale of 0 to 100), Foxtail, Giant (foxtail, giant; Preemergence, 250 g ai/ha): 100
Plant response rating, Pigweed (pigweed; [6]): 75
Plant response rating, Pigweed (pigweed; [7]): 85
Plant response rating, Pigweed (pigweed; [8]): 85
Plant response rating, Pigweed (pigweed; [9]): 90
Pigweed plant response rating (pigweed; [10]): 80
Pigweed plant response rating (pigweed; [11]): 85
Plant response rating, Pigweed (pigweed; [12]): 85
Plant response rating (scale of 0 to 100), Pigweed (pigweed; Preemergence, 250 g ai/ha): 90
Plant response rating, Velvetleaf (velvetleaf; [6]): 0
Plant response rating, Velvetleaf (velvetleaf; [7]): 10
Plant response rating, Velvetleaf (velvetleaf; [8]): 50
Plant response rating, Velvetleaf (velvetleaf; [9]): 65
Velvetleaf plant response rating (velvetleaf; [11]): 60
Plant response rating, Velvetleaf (velvetleaf; [12]): 60
Plant response rating (scale of 0 to 100), Velvetleaf (velvetleaf; Preemergence, 250 g ai/ha): 65

O=C1NCC(c2cccc(Br)c2)C1C(=O)Nc1ccc(F)c(F)c1F (stereo not shown) [Compound 310]
Plant response rating, Foxtail, Giant (giant foxtail; [2]): 90
Plant response rating, Foxtail, Giant (giant foxtail; [3]): 90
Plant response rating, Foxtail, Giant (giant foxtail; [4]): 90
Foxtail, Giant plant response rating (giant foxtail; [5]): 90
Plant response rating, Barnyardgrass (barnyardgrass; 500 g ai/ha): 60
Plant response rating, Corn (corn; [6]): 0
Plant response rating, Corn (corn; [7]): 0
Plant response rating, Corn (corn; [8]): 60
Plant response rating, Corn (corn; [9]): 30
Corn plant response rating (corn; [10]): 0
Corn plant response rating (corn; [11]): 0
Plant response rating, Corn (corn; [13]): 55
Plant response rating (scale of 0 to 100), Corn (corn; Preemergence, 250 g ai/ha): 55
Plant response rating, Crabgrass, Large (crabgrass, large; [6]): 0
Plant response rating, Crabgrass, Large (crabgrass, large; [7]): 10
Plant response rating, Crabgrass, Large (crabgrass, large; [8]): 70
Plant response rating, Crabgrass, Large (crabgrass, large; [9]): 70
Crabgrass, Large plant response rating (crabgrass, large; [10]): 90
Crabgrass, Large plant response rating (crabgrass, large; [11]): 90
Plant response rating, Crabgrass, Large (crabgrass, large; [13]): 95
Plant response rating (scale of 0 to 100), Crabgrass, Large (crabgrass, large; Preemergence, 250 g ai/ha): 95
Plant response rating, Foxtail, Giant (foxtail, giant; [6]): 0
Plant response rating, Foxtail, Giant (foxtail, giant; [7]): 5
Plant response rating, Foxtail, Giant (foxtail, giant; [8]): 30
Plant response rating, Foxtail, Giant (foxtail, giant; [9]): 70
Foxtail, Giant plant response rating (foxtail, giant; [10]): 80
Foxtail, Giant plant response rating (foxtail, giant; [11]): 85
Plant response rating, Foxtail, Giant (foxtail, giant; [13]): 90
Plant response rating (scale of 0 to 100), Foxtail, Giant (foxtail, giant; Preemergence, 250 g ai/ha): 90
Plant response rating, Pigweed (pigweed; [6]): 35
Plant response rating, Pigweed (pigweed; [7]): 40
Plant response rating, Pigweed (pigweed; [8]): 60
Plant response rating, Pigweed (pigweed; [9]): 70
Pigweed plant response rating (pigweed; [10]): 0
Pigweed plant response rating (pigweed; [11]): 5
Plant response rating, Pigweed (pigweed; [13]): 20
Plant response rating (scale of 0 to 100), Pigweed (pigweed; Preemergence, 250 g ai/ha): 20
Plant response rating, Velvetleaf (velvetleaf; [6]): 35
Plant response rating, Velvetleaf (velvetleaf; [7]): 0
Plant response rating, Velvetleaf (velvetleaf; [8]): 0
Plant response rating, Velvetleaf (velvetleaf; [9]): 40
Velvetleaf plant response rating (velvetleaf; [11]): 0
Plant response rating, Velvetleaf (velvetleaf; [13]): 5
Plant response rating (scale of 0 to 100), Velvetleaf (velvetleaf; Preemergence, 250 g ai/ha): 35

CC(C)c1cccc(C2CNC(=O)C2C(=O)Nc2cccc(F)c2F)c1 (stereo not shown) [Compound 319]
Plant response rating, Foxtail, Giant (giant foxtail; [2]): 50
Plant response rating, Foxtail, Giant (giant foxtail; [3]): 90
Plant response rating, Foxtail, Giant (giant foxtail; [4]): 90
Foxtail, Giant plant response rating (giant foxtail; [5]): 90
Plant response rating, Barnyardgrass (barnyardgrass; 500 g ai/ha): 70
Corn plant response rating (corn; [10]): 0
Corn plant response rating (corn; [11]): 30
Plant response rating, Corn (corn; [13]): 60
Plant response rating (scale of 0 to 100), Corn (corn; Preemergence, 250 g ai/ha): 65
Crabgrass, Large plant response rating (crabgrass, large; [10]): 95
Crabgrass, Large plant response rating (crabgrass, large; [11]): 98
Plant response rating, Crabgrass, Large (crabgrass, large; [13]): 95
Plant response rating (scale of 0 to 100), Crabgrass, Large (crabgrass, large; Preemergence, 250 g ai/ha): 98
Foxtail, Giant plant response rating (foxtail, giant; [10]): 70
Foxtail, Giant plant response rating (foxtail, giant; [11]): 85
Plant response rating, Foxtail, Giant (foxtail, giant; [13]): 95
Plant response rating (scale of 0 to 100), Foxtail, Giant (foxtail, giant; Preemergence, 250 g ai/ha): 95
Pigweed plant response rating (pigweed; [10]): 30
Pigweed plant response rating (pigweed; [11]): 25
Plant response rating, Pigweed (pigweed; [13]): 40
Velvetleaf plant response rating (velvetleaf; [11]): 20
Plant response rating, Velvetleaf (velvetleaf; [13]): 45

O=C1NCC(c2cccc(C(F)(F)F)c2)C1C(=O)Nc1ccc(F)c(F)c1F (stereo not shown) [Compound 345]
Plant response rating, Foxtail, Giant (giant foxtail; [2]): 90
Plant response rating, Foxtail, Giant (giant foxtail; [3]): 90
Plant response rating, Foxtail, Giant (giant foxtail; [4]): 90
Foxtail, Giant plant response rating (giant foxtail; [5]): 90
Plant response rating, Barnyardgrass (barnyardgrass; 1000 g ai/ha): 0
Corn plant response rating (corn; [10]): 40
Corn plant response rating (corn; [11]): 35
Plant response rating, Corn (corn; [13]): 65
Plant response rating (scale of 0 to 100), Corn (corn; Preemergence, 250 g ai/ha): 85
Crabgrass, Large plant response rating (crabgrass, large; [10]): 95
Crabgrass, Large plant response rating (crabgrass, large; [11]): 98
Plant response rating, Crabgrass, Large (crabgrass, large; [13]): 95
Plant response rating (scale of 0 to 100), Crabgrass, Large (crabgrass, large; Preemergence, 250 g ai/ha): 98
Foxtail, Giant plant response rating (foxtail, giant; [10]): 85
Foxtail, Giant plant response rating (foxtail, giant; [11]): 90
Plant response rating, Foxtail, Giant (foxtail, giant; [13]): 95
Plant response rating (scale of 0 to 100), Foxtail, Giant (foxtail, giant; Preemergence, 250 g ai/ha): 98
Pigweed plant response rating (pigweed; [10]): 30
Pigweed plant response rating (pigweed; [11]): 30
Plant response rating, Pigweed (pigweed; [13]): 65
Velvetleaf plant response rating (velvetleaf; [11]): 0
Plant response rating, Velvetleaf (velvetleaf; [13]): 25
